Measured values taken from paper PMC10484922, “Discovery of a selective and biologically active low-molecular weight antagonist of human interleukin-1β” (Nature Communications, 2023).
Values joined by “and” are separate entries in the source; they are usually repeats but may differ in a detail not shown here. Equal values may be shown once. Read-outs that look alike come from different tables or passages of the source. Blank lines part the entries; values can stand above or below the molecule they belong to.

Assays:
IL-1α = target: T1, IL-1α (Homo sapiens, UniProt P01583); assay: TR-FRET IL-1α/hIL-1R1 receptor displacement assay; format: biochemical; parameters: TR-FRET raw data: scale not given here
T1 sequence (P01583 113-271): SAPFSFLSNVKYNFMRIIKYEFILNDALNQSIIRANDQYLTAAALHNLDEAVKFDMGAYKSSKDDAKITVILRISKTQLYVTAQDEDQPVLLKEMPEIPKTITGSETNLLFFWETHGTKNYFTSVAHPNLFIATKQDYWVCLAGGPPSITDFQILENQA
Experimental: After 1 h incubation at room temperature, hIL-1R1 (1–332; Alexa 647 labeled; 50 nM final concentration) and anti-His-Europium W1024 (Perkin Elmer; Cat.No. AD0401, 1 nM final concentration) were added to a final volume of 10 μl per well. After 1 h of incubation at room temperature, time-resolved fluorescence was measured at λexc = 320 ± 20 nm, λem = 620 ± 25 nm/665 ± 25 nm using a Pherastar FSX plate reader. All experiments were run in triplicates. The data provided a typical saturation-binding curve, and the IC50 values were calculated by fitting the results to the Hill equation using Prism 7.0 and the in-house software Helios.

IL-1β [1] = target: T2, IL-1β (Homo sapiens, UniProt P01584); assay: protein-observed 1H-13C-HMQC NMR binding (I/Io of Leu60 Cδ1H3); parameters: Mature hIL-1β was expressed in Escherichia coli; made in house; host or cells: Escherichia coli BL21 (DE3), pET17b; conditions: hIL-1β 50 µM, 500 µM compound
Experimental: ^1H–^13C- and ^1H–^15N-HMQC spectra were recorded on Bruker AVANCE 600 MHz and 800 MHz spectrometers equipped with TXI-cryocooled probeheads. In ligand binding experiments, protein concentrations were typically 50 μM in PBS, pH 7.4. Backbone assignments of hIL-1β in the ligand-bound state and unliganded state were obtained by a combination of a 3D triple resonance experiment HNCACB and a ^15N-edited NOESY spectrum, which were processed using TOPSPIN 3.2 and analyzed using CcpNmr AnalysisAssign 3.1.0[46]. ^15N-CEST experiments were run at weak B1 radiofrequency fields of 25 and 12.5 Hz on a Bruker AVANCE 800 MHz spectrometer with 113 increments and a total sweep width of 28 ppm in the pseudo-3D dimension. Peak intensities were extracted by fitting pseudo-Voigt lineshape models using peakipy (https://github.com/j-brady/peakipy). Fitted peak intensities were subsequently used to generate CEST profiles, and exchange parameters were fitted using ChemEx (https://github.com/gbouvignies/ChemEx).
Supplementary Figure 2. 13C-NMR and 19F-NMR reporter assays to monitor early
13C-HMQC spectra of hIL-1b (50 µM) were acquired in the presence (red) and absence (blue) of 500
µM compound and rows were extracted at the w1-frequency of the peak corresponding to Leu60 […]

IL-1β [2] = target: T2, IL-1β; assay: 19F-reporter displacement assay with (S)-1 as probe; format: binding; parameters: Mature hIL-1β was expressed in Escherichia coli; made in house; host or cells: Escherichia coli BL21 (DE3), pET17b
Experimental: Protein and reporter concentrations were 10 and 40 μM, respectively. To account for changes in sample homogeneity, samples contained 1-(2,2,2-trifluoroacetyl)piperidine-4-carboxylic acid as an internal reference for scaling signal intensities. Three concentrations of the competitor were typically measured, and the related displacement of the probe was converted into Ki-values according to Dalvit and Vulpetti[17]. […] This process was automated with FRPipe, an in-house developed Python script (https://github.com/Novartis/FRPipe) that allows for streamlined analysis of such experiments. […] For visual inspection, an overview containing relevant ^19F peaks, fitting curves, and proton spectra was plotted.
Supplementary Figure 2. 13C-NMR and 19F-NMR reporter assays to monitor early structure activity relationships of analogues of 1. a, b Early structure activity relationships monitored by protein-observed and c-f 19F-NMR reporter assays, exemplified for compound 8. a 1H-13C-HMQC spectra of hIL-1b (50 µM) were acquired in the presence (red) and absence (blue) of 500 µM compound and rows were extracted at the w1-frequency of the peak corresponding to Leu60 Cd1H3. b The degree of protein binding was estimated from the ratio I/I0, where I and I0 correspond to the signal in the presence and absence of compound, respectively. c For the assessment of the KI-values, the signal intensity of a reporter molecule (S)-1 was monitored in 19F-transverse relaxation experiments run in the absence and presence of increasing amounts of compound. d All intensities were scaled to the intensity of an internal standard (all signals in panel c and d are shifted on the X-axis for clarity). e KI-values were retrieved from theoretical binding curves calculated for each compound concentration8. f One-dimensional 1H-NMR spectra were recorded for each assay mixture to assess the structural integrity and solubility of the compound in the sample.
(1 picture or pasted object on this page, not shown here)

[3] = 19F-reporter Ki, protein 10 μM, reporter (S)-1 40 μM
[4] = 19F-reporter, individual experiments (Exp1-58), source data
[5] = IL-1alpha, 0.01 uM, per experiment
[6] = IL-1alpha, 0.1 uM, per experiment
[7] = IL-1alpha, 0.2 uM, per experiment
[8] = IL-1alpha, 2 uM, per experiment
[9] = IL-1alpha, 63 uM, per experiment
[10] = IL-1alpha, 200 uM, per experiment

T2 sequence (P01584 117-269): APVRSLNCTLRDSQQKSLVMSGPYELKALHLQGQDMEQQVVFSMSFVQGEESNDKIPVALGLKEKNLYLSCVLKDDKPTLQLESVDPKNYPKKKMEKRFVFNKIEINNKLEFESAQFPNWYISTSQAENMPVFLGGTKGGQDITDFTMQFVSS

Structure (SMILES): Cc1ccc2c(c1)NC(=O)C2(O)c1cc(-c2ccc(C(=O)O)cc2)ccc1O (stereo not drawn) [Compound 10]
IC50 (IL-1α; read-out: TR-FRET IL-1α IC50): > 200 µM | I/Io (ratio of peak intensities of Leu60 Cδ1H3 in 1H-13C-HMQC spectra in presence and absence of ligand) (IL-1β [1]): 0.1 (N = 1) | Ki (IL-1β [2]; [3]): 75 ± 40 µM | Ki (IL-1β [2]; [4]): 103 µM and 47 µM

Structure (SMILES): O=C(O)c1ccccc1-c1ccc(O)c(C2(O)C(=O)Nc3cc(Cl)ccc32)c1 (stereo not drawn) [Compound 11]
IC50 (IL-1α; read-out: TR-FRET IL-1α IC50): > 200 µM | I/Io (ratio of peak intensities of Leu60 Cδ1H3 in 1H-13C-HMQC spectra in presence and absence of ligand) (IL-1β [1]): <0.1 (N = 1) | Ki (IL-1β [2]; [3]): 63 ± 41 µM | Ki (IL-1β [2]; [4]): 92 µM and 34 µM

inhibition of the IL-1R1/IL-1α interaction (IL-1α): did not observe inhibition of IL-1α | TR-FRET calculated % inhibition (IL-1α; [5]): 3% | TR-FRET raw data (IL-1α; [5]): 96 and 97 | inhibition at 0.01 µM (IL-1α; IL-1alpha, 0.01 uM, per experiment, read-out: TR-FRET calculated % inhibition): 4% | TR-FRET raw data (IL-1α; IL-1alpha, 0.02 uM, per experiment): 96 | inhibition at 0.02 µM (IL-1α; IL-1alpha, 0.02 uM, per experiment, read-out: TR-FRET calculated % inhibition): 5% | TR-FRET calculated % inhibition (IL-1α; [6]): 2% | TR-FRET raw data (IL-1α; [6]): 96 and 98 | inhibition at 0.1 µM (IL-1α; IL-1alpha, 0.1 uM, per experiment, read-out: TR-FRET calculated % inhibition): 4% | TR-FRET calculated % inhibition (IL-1α; [7]): 3% | TR-FRET raw data (IL-1α; [7]): 95 and 97 | inhibition at 0.2 µM (IL-1α; IL-1alpha, 0.2 uM, per experiment, read-out: TR-FRET calculated % inhibition): 6% | TR-FRET raw data (IL-1α; IL-1alpha, 0.6 uM, per experiment): 99 and 89 | TR-FRET calculated % inhibition (IL-1α; [8]): 2% and 11% | TR-FRET raw data (IL-1α; [8]): 98 and 90 | TR-FRET raw data (IL-1α; IL-1alpha, 6 uM, per experiment): 87 and 97 | TR-FRET raw data (IL-1α; IL-1alpha, 20 uM, per experiment): 87 and 99 | TR-FRET calculated % inhibition (IL-1α; [9]): 8% and 2% | TR-FRET raw data (IL-1α; [9]): 93 and 98 | TR-FRET calculated % inhibition (IL-1α; [10]): 7% and 1% | TR-FRET raw data (IL-1α; [10]): 94 and 99 | IC50 (IL-1α; Il1a, read-out: TR-FRET IC50, individual experiments): > 200 µM | IC50 (IL-1α; read-out: TR-FRET IL-1α IC50): > 200 µM | I/Io (ratio of peak intensities of Leu60 Cδ1H3 in 1H-13C-HMQC spectra in presence and absence of ligand) (IL-1β [1]): <0.1 | Ki (IL-1β [2]; protein 10 μM, reporter (S)-1 40 μM, read-out: 19F-reporter Ki): < 10 µM
Structure (SMILES): Cc1ccc2c(c1)NC(=O)[C@@]2(c1cn[nH]c1)c1cc(-c2ccc(C(=O)O)cc2C(=O)O)ccc1O [Compound (S)-2]
